Patent EP1210336B1, “SUBSTITUTED BENZIMIDAZOLES AS NON-NUCLEOSIDE INHIBITORS OF REVERSE TRANSCRIPTASE” (THE UNITED STATES OF AMERICA, as represented by the …, priority 1999, dated 2001)
Where two headings read alike, the source gives them in different places.

Experiments:
[1] = test system: HIV-1 isolate 4xAZT/L100I; assay: Cytopathic cell killing assay, cross-resistance profile, infected MT-4 cells; format: cell-based
Procedure, shortened: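 Cytopathic protection assay: cells at 5 x 10^3/well infected with pre-titered HIV isolate (e.g., MOI 0.01-0.05), compound serial half-log dilutions in triplicate.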

HIV-1 WT RT = molecular target: T1, HIV-1 WT RT (Human immunodeficiency virus type 1 group M subtype B, UniProt P03366); details: reported by Pauwels et al. (TIBO) and Buckheit et al. (thiazolobenzimidazole); read-out: IC50 for rC:dG; cited from earlier work
T1 construct: purified RT protein (0.015 mg/mL) was incubated in a 100 µL reaction mixture

WT virus (NL4-3) = assay: microbe, parasite or virus in culture; format: cell-based, HIV-1; details: for EC50: Human immunodeficiency virus 1, NL43, CEM-SS, read-out: EC50
Procedure, shortened: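 CEM-SS cells (5 x 10^3/well) infected with HIV-1 at an MOI giving complete killing by day 6 (e.g., 0.01-0.05), with serial half-log compound dilutions in triplicate. After 6 days at 37°C, viability read by XTT reduction at 450 nm. CIC50 derived from protection against cytopathic killing.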

[2] = Human immunodeficiency virus 1, MT4, Table 4, isolate 4xAZT/L.1001
[3] = Human immunodeficiency virus 1, MT4, Table 8, isolate 4XA7T L 1001
[4] = Human immunodeficiency virus 1, MT4, Table 9, isolate 4XAZT /L1001

Structure (SMILES) | EC50 [1, 2] [nM] | EC50 [1, 3] [nM] | EC50 [1, 4] [nM] | IC50 (HIV-1 WT RT) [nM] | cytotoxicity and anti-viral effect (summary graph) (WT virus (NL4-3); Figures 10-12, result in words) | EC50 (WT virus (NL4-3); Table 7, concentration reducing cell killing or virus production by 50%, HIV-1 WT) [nM] | EC50 (WT virus (NL4-3); Table 11, CEMSS/NL4-3, NRVC = reduction in viral CPE not seen (footnote)) [nM] | therapeutic index (WT virus (NL4-3); difference between efficacy of the drug and cellular toxicity, Figure 10)
Fc1cccc(F)c1C1SCc2nc3ccccc3n21 (centres unmarked) [TZB, 1-(2,6-difluorophenyl)-1H,3H-thiazolo[3,4-a]benzimidazole, reference compound] | 1700 | 1100 | 1100 | 500 |  |  |  | 
Cc1cccc2c1nc(-c1c(F)cccc1F)n2Cc1c(F)cccc1F [compound 33, 1-(2,6-difluorobenzyl)-2-(2,6-difluorophenyl)-4-methylbenzimidazole] | 200 | 200 | 200 |  | very effective therapeutic dose | 440 | 440 | greater than one log in concentration
